Laboratory results as given in patent US9833497B2, “Human originated EGF domain proteins and use of the same” (CHENGDU SOURCEBIO LIMITED-LIABILITY COMPANY, priority 2013, dated 2017).

Key:
Type in all cases: cell-based
[1] = system: Aeromonas hydrophila; assay: MIC against Gram-negative bacteria: Aeromonas hydrophila; details: 5×10^5 CFU/mL
Outline: (§1)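 LB broth cultures at McFarland 0.5, spun down, resuspended, diluted to 5×10^5 CFU/mL final. Two-fold serial dilutions of purified human EGF domain proteins, triplicate. 37° C, 175 rpm shaking. Endpoint: no visible growth.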

[2] = system: Proteus vulgaris; assay: MIC against Gram-negative bacteria: Proteus vulgaris; details: 5×10^5 CFU/mL
Outline: as §1

[3] = system: Enterobacter cloacae; assay: MIC against Gram-negative bacteria: Enterobacter cloacae; details: 5×10^5 CFU/mL
Outline: as §1

[4] = system: Pseudomonas aeruginosa; assay: MIC against Gram-negative bacteria: Pseudomonas aeruginosa; details: 5×10^5 CFU/mL
Outline: as §1

[5] = system: Citrobacter diversus; assay: MIC against Gram-negative bacteria: Citrobacter diversus; details: 5×10^5 CFU/mL
Outline: as §1

[6] = system: Proteus mirabilis; assay: MIC against Gram-negative bacteria: Proteus mirabilis; details: 5×10^5 CFU/mL
Outline: as §1

[7] = system: E. coli BL21; assay: MIC against Gram-negative bacteria: E. coli BL21; details: E. coli BL21, 5×10^5 CFU/mL
Outline: as §1

[8] = system: Klebsiella pneumonia; assay: MIC against Gram-negative bacteria: Klebsiella pneumonia; details: 5×10^5 CFU/mL
Outline: as §1

[9] = system: Moraxella catarrhalis; assay: MIC against Gram-negative bacteria: Moraxella catarrhalis; details: 5×10^5 CFU/mL
Outline: as §1

[10] = system: Serratia marcescens; assay: MIC against Gram-negative bacteria: Serratia marcescens; details: 5×10^5 CFU/mL
Outline: as §1

[11] = system: E. coli DH5α; assay: Antibacterial activity: MIC and growth curve against E. coli DH5α in 96-well plate; details: minimal inhibitory concentration against E. coli DH5α; 96-well plate, 5×10^5 CFU/mL, 37° C., judged after 8 h
Outline: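 MIC taken as lowest protein level with no bacterial growth, tracked by A600 every 30 min during 37 °C, 175 rpm culture. Two-fold protein series 50-12.5 μg/mL final, triplicate wells, against 5×10^5 CFU/mL of LB-washed mid-log cells.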

[12] = Aeromonas hydrophila, 96-well plate, 37° C., 10 h
[13] = Proteus vulgaris, 96-well plate, 37° C., 10 h
[14] = Enterobacter cloacae, 96-well plate, 37° C., 10 h
[15] = Pseudomonas aeruginosa, 96-well plate, 37° C., 10 h
[16] = Citrobacter diversus, 96-well plate, 37° C., 10 h
[17] = Proteus mirabilis, 96-well plate, 37° C., 10 h
[18] = Klebsiella pneumonia, 96-well plate, 37° C., 10 h
[19] = Moraxella catarrhalis, 96-well plate, 37° C., 10 h
[20] = Serratia marcescens, 96-well plate, 37° C., 10 h
[21] = A. hydrophila, 10 h cultivation at 37° C.
[22] = P. vulgaris, 10 h cultivation at 37° C.
[23] = E. cloacae, 10 h cultivation at 37° C.
[24] = P. aeruginosa, 10 h cultivation at 37° C.
[25] = C. diversus, 10 h cultivation at 37° C.
[26] = P. mirabilis, 10 h cultivation at 37° C.
[27] = K. pneumonia, 10 h cultivation at 37° C.
[28] = M. catarrhalis, 10 h cultivation at 37° C.
[29] = S. marcescens, 10 h cultivation at 37° C.

Substance	MIC (μg/mL) A. hydrophila [1, 12]	MIC (μg/mL) P. vulgaris [2, 13]	MIC (μg/mL) E. cloacae [3, 14]	MIC (μg/mL) P. aeruginosa [4, 15]	MIC (μg/mL) C. diversus [5, 16]	MIC (μg/mL) P. mirabilis [6, 17]	MIC (μg/mL) E. coli BL21 ([7]; 96-well plate, 37° C., 10 h)	MIC (μg/mL) K. pneumonia [8, 18]	MIC (μg/mL) M. catarrhalis [9, 19]	MIC (μg/mL) S. marcescens [10, 20]	MIC [11]	MIC (μg/mL) A. hydrophila [1, 21]	MIC (μg/mL) P. vulgaris [2, 22]	MIC (μg/mL) E. cloacae [3, 23]	MIC (μg/mL) P. aeruginosa [4, 24]	MIC (μg/mL) C. diversus [5, 25]	MIC (μg/mL) P. mirabilis [6, 26]	MIC (μg/mL) E. coli BL21 ([7]; 10 h cultivation at 37° C.)	MIC (μg/mL) K. pneumonia [8, 27]	MIC (μg/mL) M. catarrhalis [9, 28]	further results
PRT134 (IKDRCLPNYCEHGGSCSQSWTTFYCNCSDTSYTGATCH; listed as Homo sapiens)	25 µg/mL	25 µg/mL	12.5 µg/mL	12.5 µg/mL	25 µg/mL	100 µg/mL	12.5 µg/mL	25 µg/mL	12.5 µg/mL	12.5 µg/mL	12.5 µg/mL	–	–	–	–	–	–	–	–	–	–
PRT135 (PGHCSSYGSICHNGGKCVEKHNGYLCDCTNSPYEGPFCK; listed as Homo sapiens)	12.5 µg/mL	12.5 µg/mL	25 µg/mL	25 µg/mL	25 µg/mL	25 µg/mL	12.5 µg/mL	12.5 µg/mL	50 µg/mL	50 µg/mL	25 µg/mL	–	–	–	–	–	–	–	–	–	–
PRT137 (NPCQGSATCVNTPGERSFLCKCPPGYSGTICE; listed as Homo sapiens)	12.5 µg/mL	12.5 µg/mL	25 µg/mL	25 µg/mL	25 µg/mL	25 µg/mL	12.5 µg/mL	12.5 µg/mL	12.5 µg/mL	50 µg/mL	25 µg/mL	–	–	–	–	–	–	–	–	–	–
PRT138 (PCHNNATCEDSVDNYTCHCWPGYTGAQCE; listed as Homo sapiens)	25 µg/mL	12.5 µg/mL	50 µg/mL	12.5 µg/mL	12.5 µg/mL	12.5 µg/mL	50 µg/mL	25 µg/mL	100 µg/mL	25 µg/mL	12.5 µg/mL	–	–	–	–	–	–	–	–	–	–
PRT141 (DPCENNPCLHGGTCNANGTMYGCSCDQGFAGENCE; listed as Homo sapiens)	25 µg/mL	12.5 µg/mL	12.5 µg/mL	12.5 µg/mL	50 µg/mL	50 µg/mL	25 µg/mL	25 µg/mL	12.5 µg/mL	50 µg/mL	12.5 µg/mL	–	–	–	–	–	–	–	–	–	–
PRT142 (PCPGRYLRAGKCAELPNCLDDLGGFACECATGFELGKDGRSCV; listed as Homo sapiens)	25 µg/mL	25 µg/mL	25 µg/mL	25 µg/mL	12.5 µg/mL	12.5 µg/mL	12.5 µg/mL	12.5 µg/mL	25 µg/mL	12.5 µg/mL	12.5 µg/mL	–	–	–	–	–	–	–	–	–	–
PRT143 (PRNPCRMSCQNHGRLNISTCHCHCPPGYTGRYCQ; listed as Homo sapiens)	12.5 µg/mL	12.5 µg/mL	12.5 µg/mL	12.5 µg/mL	12.5 µg/mL	25 µg/mL	12.5 µg/mL	12.5 µg/mL	50 µg/mL	25 µg/mL	12.5 µg/mL	–	–	–	–	–	–	–	–	–	–
PRT144 (DKKVCSSNPCQNGGTCLNLHDSFFCICPPQWKGPLCS; listed as Homo sapiens)	–	–	–	–	–	–	–	–	–	–	25 µg/mL	50 µg/mL	50 µg/mL	12.5 µg/mL	12.5 µg/mL	25 µg/mL	25 µg/mL	50 µg/mL	50 µg/mL	12.5 µg/mL	MIC (μg/mL) S. marcescens [10, 29]: 12.5 µg/mL
PRT145 (DVNECEIYSGTPLSCQNGGTCVNTMGSYSCHCPPETYGPQCA; listed as Homo sapiens)	–	–	–	–	–	–	–	–	–	–	12.5 µg/mL	12.5 µg/mL	12.5 µg/mL	12.5 µg/mL	12.5 µg/mL	12.5 µg/mL	25 µg/mL	12.5 µg/mL	12.5 µg/mL	12.5 µg/mL	MIC (μg/mL) S. marcescens [10, 29]: 25 µg/mL
PRT146 (DRDECSFQPGPCSTLVQCFNTQGSFYCGACPTGWQGNGYICE; listed as Homo sapiens)	–	–	–	–	–	–	–	–	–	–	12.5 µg/mL	12.5 µg/mL	12.5 µg/mL	12.5 µg/mL	12.5 µg/mL	25 µg/mL	25 µg/mL	50 µg/mL	50 µg/mL	12.5 µg/mL	MIC (μg/mL) S. marcescens [10, 29]: 25 µg/mL
PRT147 (DINECEINNGGCSVAPPVECVNTPGSSHCQACPPGYQGDGRVCT; listed as Homo sapiens)	–	–	–	–	–	–	–	–	–	–	12.5 µg/mL	12.5 µg/mL	25 µg/mL	12.5 µg/mL	12.5 µg/mL	12.5 µg/mL	12.5 µg/mL	12.5 µg/mL	12.5 µg/mL	12.5 µg/mL	MIC (μg/mL) S. marcescens [10, 29]: 12.5 µg/mL
PRT148 (LTDICSVSNGGCHPDASCSSTLGSLPLCTCLPGYTGN; listed as Homo sapiens)	–	–	–	–	–	–	–	–	–	–	25 µg/mL	12.5 µg/mL	12.5 µg/mL	50 µg/mL	25 µg/mL	50 µg/mL	50 µg/mL	50 µg/mL	12.5 µg/mL	12.5 µg/mL	MIC (μg/mL) S. marcescens [10, 29]: 50 µg/mL
PRT149 (LSNICLSHPCLNGQCIDTVSGYFCKCDSGWTGVNCT; listed as Homo sapiens)	–	–	–	–	–	–	–	–	–	–	12.5 µg/mL	25 µg/mL	12.5 µg/mL	12.5 µg/mL	12.5 µg/mL	12.5 µg/mL	12.5 µg/mL	12.5 µg/mL	25 µg/mL	25 µg/mL	MIC (μg/mL) S. marcescens [10, 29]: 12.5 µg/mL
PRT151 (GCKYLSDINITRYNINCRENRACNELFHCQCDPGYAPPDCE; listed as Homo sapiens)	–	–	–	–	–	–	–	–	–	–	12.5 µg/mL	50 µg/mL	50 µg/mL	12.5 µg/mL	12.5 µg/mL	25 µg/mL	25 µg/mL	50 µg/mL	50 µg/mL	12.5 µg/mL	MIC (μg/mL) S. marcescens [10, 29]: 12.5 µg/mL
